Biological target: T1, Neprilysin (Rattus norvegicus, UniProt P07861)
T1 sequence (P07861 whole entry): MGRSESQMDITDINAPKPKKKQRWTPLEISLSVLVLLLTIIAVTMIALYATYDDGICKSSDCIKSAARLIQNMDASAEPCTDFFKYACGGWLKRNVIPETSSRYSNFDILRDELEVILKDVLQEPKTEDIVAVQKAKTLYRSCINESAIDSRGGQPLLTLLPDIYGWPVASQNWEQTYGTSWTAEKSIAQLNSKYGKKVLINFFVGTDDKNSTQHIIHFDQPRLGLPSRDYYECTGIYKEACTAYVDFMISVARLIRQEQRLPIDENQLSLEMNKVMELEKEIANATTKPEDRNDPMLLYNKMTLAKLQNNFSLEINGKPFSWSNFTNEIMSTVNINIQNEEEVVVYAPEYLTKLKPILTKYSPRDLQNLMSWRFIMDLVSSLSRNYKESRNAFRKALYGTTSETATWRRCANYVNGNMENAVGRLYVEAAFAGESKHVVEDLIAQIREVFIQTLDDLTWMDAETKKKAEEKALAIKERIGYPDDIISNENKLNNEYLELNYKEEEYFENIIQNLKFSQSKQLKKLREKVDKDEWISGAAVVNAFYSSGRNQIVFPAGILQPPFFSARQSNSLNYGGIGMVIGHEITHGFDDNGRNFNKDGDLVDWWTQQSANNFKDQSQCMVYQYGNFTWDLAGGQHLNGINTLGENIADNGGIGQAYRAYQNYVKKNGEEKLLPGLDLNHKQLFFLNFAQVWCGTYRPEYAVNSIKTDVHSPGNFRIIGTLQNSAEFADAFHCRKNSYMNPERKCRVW
Assay: Inhibition of neutral endopeptidase (NEP).

Ki [nM] | Structure (SMILES)
45 | O=C(O)[C@@H]1CCCC2c3ccccc3C[C@@H](CS)C(=O)N21 (some centres undefined)
0.3 | C[C@H](NC(=O)C1(CS)CCc2ccccc2C1)C(=O)OCc1ccccc1 (some centres undefined)
> 300 | O=C(O)[C@@H]1CCCC2c3ccccc3C[C@H](CS)C(=O)N21 (some centres undefined)
0.2 | COC(=O)CCNC(=O)C1(CS)CCc2ccccc2C1 (centres undefined)
7 | COC(=O)[C@H](CC(C)C)NC(=O)C1(CS)CCc2ccccc2C1 (some centres undefined)
0.6 | O=C(O)CCCCCCNC(=O)C1(CS)CCc2ccccc2C1 (centres undefined)
10 | O=C(CNC(=O)C1(CS)Cc2ccccc2C1)OCc1ccccc1
4 | COC(=O)[C@H](Cc1ccccc1)NC(=O)C1(CS)CCc2ccccc2C1 (some centres undefined)
0.6 | O=C(O)C1CCC(NC(=O)C2(CS)CCc3ccccc3C2)CC1 (centres undefined)
2 | CC(C)[C@H](NC(=O)C1(CS)CCc2ccccc2C1)C(=O)OCc1ccccc1 (some centres undefined)
0.4 | O=C(CNC(=O)C1(CS)CCc2ccccc2C1)OCc1ccccc1 (centres undefined)
5 | O=C(CS)N[C@H]1Cc2ccccc2C2CCC[C@@H](C(=O)O)N2C1=O (some centres undefined)
0.5 | O=C(OCc1ccccc1)[C@H](Cc1ccc(O)cc1)NC(=O)C1(CS)CCc2ccccc2C1 (some centres undefined)
14 | O=C(NCc1ccc2c(c1)OCO2)C1(CS)CCc2ccccc2C1 (centres undefined)

— ChEMBL document CHEMBL1129152, “Synthesis of constrained thiorphan analogs as inhibitors of neutral endopeptidase” (Bioorg Med Chem Lett, 1996)
